Data published in patent US5994375A, “Benzamidine derivatives substituted by amino acid and hydroxy acid derivatives and their use as anti-coagulants” (Berlex Laboratories, Inc., priority 1996, dated 1999).
Square brackets hold non-standard residues; d marks the D form. Peptide text beside a SMILES is read from it. * marks the point of attachment. pNA = O=[N+]([O-])c1ccc(N*)cc1

Key:
[1] = biological target: T1, Human tissue plasminogen activator (tPA) (Two chains, Sigma) (Homo sapiens, UniProt P00750); experiment: In vitro chromogenic assay for tissue plasminogen activator (cleavage of peptide p-nitroanilide S2288); type: biochemical; conditions: substrate concentration stated equal to its Km under the assay conditions; 10 nM tPA, pH 7.5, ambient temperature
T1 construct: purchased Sigma
T1 sequence (P00750 311-562 limits assumed): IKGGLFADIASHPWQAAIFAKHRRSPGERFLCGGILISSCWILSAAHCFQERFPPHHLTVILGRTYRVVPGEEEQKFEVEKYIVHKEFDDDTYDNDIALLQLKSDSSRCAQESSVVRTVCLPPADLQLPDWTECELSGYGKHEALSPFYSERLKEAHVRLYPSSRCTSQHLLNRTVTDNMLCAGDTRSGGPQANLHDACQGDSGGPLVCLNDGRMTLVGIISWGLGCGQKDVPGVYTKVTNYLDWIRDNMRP
T1 sequence (P00750 36-310 partner limits assumed): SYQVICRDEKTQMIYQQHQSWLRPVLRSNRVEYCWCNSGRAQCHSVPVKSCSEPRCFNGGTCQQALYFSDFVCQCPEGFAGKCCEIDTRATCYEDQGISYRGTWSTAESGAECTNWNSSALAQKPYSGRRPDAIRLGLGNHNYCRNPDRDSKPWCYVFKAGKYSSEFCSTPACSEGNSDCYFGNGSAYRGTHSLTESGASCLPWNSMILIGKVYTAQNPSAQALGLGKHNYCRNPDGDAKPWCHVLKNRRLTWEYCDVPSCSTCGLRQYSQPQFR
Protocol: (§1) The activities were determined as an initial rate of cleavage of the peptide p-nitroanilide by the enzyme. The cleavage product, p-nitroaniline, absorbs at 405 nm with a molar extinction coefficient of 9920 M^-1 cm^-1.
(§2) 50 mM TrisHCl, 150 mM NaCl, 2.5 mM CaCl2, and 0.1% polyethylene glycol 6000, pH 7.5.
3. Human tissue plasminogen activator (tPA) (Two chains, Sigma) stock solution: 1 mg/mL, stored at -80° C. (working solution (2×): 1361 ng/mL in assay buffer, prepare prior to use).
3. S2288 (tPA assay) stock solution: 10 mM in dH2 O, stored at 4° C. (working solution (4×): 1484 μM in assay buffer).
(§3) Assays were performed in 96-well microtiter plates in a total volume of 200 μl. […] Concentrations of the standard inhibitor compound in the assay were from 5 μM to 0.021 μM in 1 to 3 dilution. Concentration of the test compounds in the assay typically were from 10 μM to 0.041 μM in 1 to 3 dilution. For potent test compounds, the concentrations used in the factor Xa assay were further diluted 100 fold (100 nM to […]) or 1000 fold (10 nM to 0.041 nM). All substrate concentrations used are equal to their Km values under the present assay conditions. Assays were performed at ambient temperature. […]
(§4) The enzyme kinetics were measured at 405 nm at 10 seconds intervals for five minutes in a THERMOmax plate reader at ambient temperature.

[2] = biological target: T2, Human thrombin (Homo sapiens, UniProt P00734); experiment: In vitro chromogenic assay for thrombin (cleavage of peptide p-nitroanilide S2302); type: biochemical; conditions: substrate concentration stated equal to its Km under the assay conditions; 20 nM thrombin, pH 7.5, ambient temperature
T2 construct: Human thrombin stock solution; purchased Enzyme Research Lab
Protocol: as §1, §2
2. Human thrombin stock solution: Stored at -80° C. (working solution (2×): 1200 ng/mL or 40 nM in assay buffer, prepare prior to use).
2. S2302 (Thrombin assay) stock solution: 10 mM in dH2 O, stored at 4° C. (working solution (4×): 1200 μM in assay buffer).
as §3, with “nM).” for “nM). All substrate concentrations used are equal to their Km values under the present assay conditions. Assays were performed at ambient temperature.”
as §4
Enzyme rates were calculated as mOD/min based on the first two minutes readings. The IC50 values were determined by fitting the data to the log-logit equation (linear) or the Morrison equation (non-linear) with an EXCEL spread-sheet. […]

CC[C@@H](C)[C@@H](N)C(=O)N1CCC[C@H]1C(=O)N[C@@H](CCCN=C(N)N)C(=O)Nc1ccc([N+](=O)[O-])cc1 [Example S2288] (H-[dI]-Pro-Arg-pNA)
Km [1]: 371 µM

N=C(N)NCCC[C@H](NC(=O)[C@H](Cc1ccccc1)NC(=O)[C@H]1CCCN1)C(=O)Nc1ccc([N+](=O)[O-])cc1 [Example S2302] (H-[dP]-Phe-Arg-pNA)
Km [2]: 300 µM
